In the NIST ThermoML archive (doi:10.1021/je0340755):
Numbers after ± are expanded uncertainties.

Assay: xn = mol fraction of the nth substance listed
Settings: 101.3 kPa, Liquid; for viscosity: Capillary tube (Ostwald / Ubbelohde) method

CCC(O)CO (stereo not given) [1,2-butanediol] + O
Settings	mass density [kg/m3]	speed of sound [m/s]	viscosity [mPa·s]
298.15 K, x2 = 0.0471	999.56 ± 0.35	1455.6 ± 12	54.4 ± 0.17
298.15 K, x2 = 0.1478	1001.36 ± 0.34	1480.8 ± 12	47.22 ± 0.22
298.15 K, x2 = 0.2481	1003.09 ± 0.33	1497.6 ± 12	39.78 ± 0.18
298.15 K, x2 = 0.3491	1005.12 ± 0.32	1517.2 ± 12	32.56 ± 0.15
298.15 K, x2 = 0.443	1007.55 ± 0.32	1545.9 ± 13	26.42 ± 0.13
298.15 K, x2 = 0.4971	1009.14 ± 0.32	1564.2 ± 13	23.17 ± 0.12
298.15 K, x2 = 0.5552	1010.88 ± 0.32	1581.1 ± 13	19.92 ± 0.1
298.15 K, x2 = 0.6494	1013.49 ± 0.31	1600.3 ± 13	15.11 ± 0.09
298.15 K, x2 = 0.7491	1015.73 ± 0.31	1622.2 ± 13	10.48 ± 0.078
298.15 K, x2 = 0.8547	1016.98 ± 0.31	1666.2 ± 13	5.959 ± 0.069
298.15 K, x2 = 0.9081	1015.65 ± 0.31	1670.6 ± 14	3.869 ± 0.066
298.15 K, x2 = 0.9144	1015.26 ± 0.3	1667.8 ± 13	3.635 ± 0.066
298.15 K, x2 = 0.9255	1014.39 ± 0.3	1660.6 ± 13	3.232 ± 0.065
298.15 K, x2 = 0.9353	1013.39 ± 0.3	1651 ± 13	2.885 ± 0.065
298.15 K, x2 = 0.9543	1010.65 ± 0.29	1623.1 ± 13	2.241 ± 0.064
298.15 K, x2 = 0.9562	1010.3 ± 0.29	1619.5 ± 13	2.179 ± 0.064
298.15 K, x2 = 0.9598	1009.61 ± 0.29	1612.5 ± 13	2.063 ± 0.064
298.15 K, x2 = 0.97	1007.33 ± 0.28	1589.6 ± 13	1.743 ± 0.064
298.15 K, x2 = 0.9806	1004.38 ± 0.27	1561 ± 13	1.425 ± 0.064
298.15 K, x2 = 0.9902	1001.1 ± 0.26	1531.6 ± 13	1.152 ± 0.063
298.15 K, x2 = 0.9923	1000.29 ± 0.26	1524.8 ± 12	1.095 ± 0.063
298.15 K, x2 = 0.9956	998.96 ± 0.26	1513.5 ± 12	1.006 ± 0.063
308.15 K, x2 = 0.0471	992.15 ± 0.36	1426 ± 12	28.67 ± 0.14
308.15 K, x2 = 0.1478	993.92 ± 0.35	1443.9 ± 12	25.18 ± 0.13
308.15 K, x2 = 0.2481	995.73 ± 0.33	1452.8 ± 12	21.61 ± 0.11
308.15 K, x2 = 0.3491	997.81 ± 0.31	1474 ± 12	18.1 ± 0.1
308.15 K, x2 = 0.443	1000.17 ± 0.3	1496.6 ± 12	15.04 ± 0.091
308.15 K, x2 = 0.4971	1001.68 ± 0.3	1508.1 ± 12	13.39 ± 0.086
308.15 K, x2 = 0.5552	1003.37 ± 0.29	1519.5 ± 12	11.69 ± 0.081
308.15 K, x2 = 0.6494	1006.11 ± 0.29	1542.9 ± 13	9.091 ± 0.075
308.15 K, x2 = 0.7491	1008.77 ± 0.29	1585.6 ± 13	6.504 ± 0.07
308.15 K, x2 = 0.8547	1010.49 ± 0.29	1640.7 ± 13	3.9 ± 0.066
308.15 K, x2 = 0.9081	1009.43 ± 0.29	1647.5 ± 13	2.651 ± 0.065
308.15 K, x2 = 0.9144	1009.1 ± 0.28	1645.9 ± 13	2.509 ± 0.064
308.15 K, x2 = 0.9255	1008.36 ± 0.28	1641.4 ± 13	2.26 ± 0.064
308.15 K, x2 = 0.9353	1007.51 ± 0.28	1635.3 ± 13	2.044 ± 0.064
308.15 K, x2 = 0.9543	1005.2 ± 0.27	1617.1 ± 13	1.635 ± 0.064
308.15 K, x2 = 0.9562	1004.91 ± 0.27	1614.7 ± 13	1.594 ± 0.064
308.15 K, x2 = 0.9598	1004.33 ± 0.27	1610 ± 13	1.519 ± 0.064
308.15 K, x2 = 0.97	1002.44 ± 0.26	1594.4 ± 13	1.308 ± 0.063
308.15 K, x2 = 0.9806	1000 ± 0.26	1574.5 ± 13	1.094 ± 0.063
308.15 K, x2 = 0.9902	997.32 ± 0.26	1552.8 ± 13	0.906 ± 0.063
308.15 K, x2 = 0.9923	996.67 ± 0.27	1547.5 ± 13	0.865 ± 0.063
308.15 K, x2 = 0.9956	995.58 ± 0.27	1538.9 ± 13	0.802 ± 0.063
318.15 K, x2 = 0.0471	984.63 ± 0.38	1396.5 ± 12	16.54 ± 0.1
318.15 K, x2 = 0.1478	986.4 ± 0.36	1415 ± 12	14.53 ± 0.092
318.15 K, x2 = 0.2481	988.13 ± 0.35	1422.4 ± 12	12.47 ± 0.085
318.15 K, x2 = 0.3491	990.15 ± 0.33	1441.3 ± 12	10.46 ± 0.079
318.15 K, x2 = 0.443	992.53 ± 0.32	1462.7 ± 12	8.706 ± 0.075
318.15 K, x2 = 0.4971	994.08 ± 0.31	1474.1 ± 12	7.758 ± 0.073
318.15 K, x2 = 0.5552	995.8 ± 0.3	1485.9 ± 12	6.789 ± 0.071
318.15 K, x2 = 0.6494	998.48 ± 0.28	1510 ± 12	5.314 ± 0.068
318.15 K, x2 = 0.7491	1001.03 ± 0.27	1553.8 ± 13	3.848 ± 0.066
318.15 K, x2 = 0.8547	1003.2 ± 0.27	1614.7 ± 13	2.378 ± 0.064
318.15 K, x2 = 0.9081	1003 ± 0.27	1630.6 ± 13	1.675 ± 0.064
318.15 K, x2 = 0.9144	1002.81 ± 0.27	1630.5 ± 13	1.595 ± 0.064
318.15 K, x2 = 0.9255	1002.34 ± 0.26	1629 ± 13	1.455 ± 0.064
318.15 K, x2 = 0.9353	1001.75 ± 0.26	1626 ± 13	1.334 ± 0.063
318.15 K, x2 = 0.9543	999.98 ± 0.26	1614.7 ± 13	1.105 ± 0.064
318.15 K, x2 = 0.9562	999.74 ± 0.26	1613.2 ± 13	1.083 ± 0.063
318.15 K, x2 = 0.9598	999.27 ± 0.26	1610 ± 13	1.041 ± 0.063
318.15 K, x2 = 0.97	997.69 ± 0.26	1599 ± 13	0.923 ± 0.063
318.15 K, x2 = 0.9806	995.59 ± 0.27	1584.6 ± 13	0.804 ± 0.063
318.15 K, x2 = 0.9902	993.21 ± 0.27	1568.4 ± 13	0.699 ± 0.063
318.15 K, x2 = 0.9923	992.62 ± 0.28	1564.4 ± 13	0.677 ± 0.063
318.15 K, x2 = 0.9956	991.63 ± 0.28	1557.9 ± 13	0.642 ± 0.063
328.15 K, x2 = 0.0471	976.76 ± 0.4	1381.6 ± 12	10.36 ± 0.081
328.15 K, x2 = 0.1478	978.45 ± 0.38	1392.6 ± 12	9.126 ± 0.077
328.15 K, x2 = 0.2481	980.12 ± 0.37	1404 ± 12	7.863 ± 0.074
328.15 K, x2 = 0.3491	982.09 ± 0.35	1421.6 ± 12	6.626 ± 0.071
328.15 K, x2 = 0.443	984.39 ± 0.34	1440 ± 12	5.547 ± 0.069
328.15 K, x2 = 0.4971	985.9 ± 0.33	1450.7 ± 12	4.962 ± 0.068
328.15 K, x2 = 0.5552	987.59 ± 0.32	1464.3 ± 12	4.363 ± 0.067
328.15 K, x2 = 0.6494	990.29 ± 0.3	1490.7 ± 12	3.447 ± 0.066
328.15 K, x2 = 0.7491	993 ± 0.29	1532.6 ± 13	2.533 ± 0.064
328.15 K, x2 = 0.8547	995.64 ± 0.27	1592.7 ± 13	1.615 ± 0.064
328.15 K, x2 = 0.9081	995.96 ± 0.27	1611.9 ± 13	1.177 ± 0.063
328.15 K, x2 = 0.9144	995.86 ± 0.27	1612.7 ± 13	1.127 ± 0.063
328.15 K, x2 = 0.9255	995.56 ± 0.27	1612.9 ± 13	1.04 ± 0.063
328.15 K, x2 = 0.9353	995.14 ± 0.27	1611.8 ± 13	0.964 ± 0.063
328.15 K, x2 = 0.9543	993.79 ± 0.27	1604.2 ± 13	0.821 ± 0.063
328.15 K, x2 = 0.9562	993.61 ± 0.27	1603.4 ± 13	0.807 ± 0.063
328.15 K, x2 = 0.9598	993.23 ± 0.28	1601.5 ± 13	0.781 ± 0.063
328.15 K, x2 = 0.97	991.96 ± 0.28	1594 ± 13	0.707 ± 0.063
328.15 K, x2 = 0.9806	990.23 ± 0.28	1583.2 ± 13	0.633 ± 0.063
328.15 K, x2 = 0.9902	988.23 ± 0.29	1571.2 ± 13	0.568 ± 0.063
328.15 K, x2 = 0.9923	987.73 ± 0.29	1568.9 ± 13	0.554 ± 0.063
328.15 K, x2 = 0.9956	986.9 ± 0.3	1563.4 ± 13	0.532 ± 0.063
338.15 K, x2 = 0.0471	968.75 ± 0.42	1365.8 ± 12	6.896 ± 0.072
338.15 K, x2 = 0.1478	970.35 ± 0.4	1376.1 ± 12	6.061 ± 0.07
338.15 K, x2 = 0.2481	971.96 ± 0.39	1387.3 ± 12	5.201 ± 0.069
338.15 K, x2 = 0.3491	973.85 ± 0.37	1402.7 ± 12	4.361 ± 0.067
338.15 K, x2 = 0.443	976.07 ± 0.36	1420.1 ± 12	3.638 ± 0.066
338.15 K, x2 = 0.4971	977.53 ± 0.35	1430.2 ± 12	3.251 ± 0.065
338.15 K, x2 = 0.5552	979.18 ± 0.34	1443.6 ± 12	2.859 ± 0.065
338.15 K, x2 = 0.6494	981.87 ± 0.33	1468.5 ± 12	2.268 ± 0.064
338.15 K, x2 = 0.7491	984.71 ± 0.31	1507.6 ± 12	1.689 ± 0.064
338.15 K, x2 = 0.8547	987.72 ± 0.3	1565.4 ± 13	1.114 ± 0.063
338.15 K, x2 = 0.9081	988.49 ± 0.29	1587.3 ± 13	0.843 ± 0.063
338.15 K, x2 = 0.9144	988.47 ± 0.29	1588.5 ± 13	0.812 ± 0.063
338.15 K, x2 = 0.9255	988.32 ± 0.29	1590.4 ± 13	0.759 ± 0.063
338.15 K, x2 = 0.9353	988.06 ± 0.29	1591 ± 13	0.713 ± 0.063
338.15 K, x2 = 0.9543	987.1 ± 0.29	1588.9 ± 13	0.626 ± 0.063
338.15 K, x2 = 0.9562	986.96 ± 0.3	1588.1 ± 13	0.618 ± 0.063
338.15 K, x2 = 0.9598	986.68 ± 0.3	1587.6 ± 13	0.602 ± 0.063
338.15 K, x2 = 0.97	985.68 ± 0.3	1583.6 ± 13	0.558 ± 0.063
338.15 K, x2 = 0.9806	984.29 ± 0.3	1577.1 ± 13	0.514 ± 0.063
338.15 K, x2 = 0.9902	982.66 ± 0.31	1570.2 ± 13	0.476 ± 0.063
338.15 K, x2 = 0.9923	982.25 ± 0.31	1568 ± 13	0.467 ± 0.063
338.15 K, x2 = 0.9956	981.55 ± 0.31	1564.9 ± 13	0.455 ± 0.063
